Usually Ki stands for a measure of affinity in units of concentration, obtained from inhibition or displacement.

For assay [1], the target named is T1, KOR (Homo sapiens, UniProt P41145). Briefly: Real-time BRET kinetics of KOR–Nb6. Particulars: for BRET, KOR + Nb6: SalA / Buffer. It counts as cell-based. Background: In BRET a luciferase serves as donor, and the signal depends on an acceptor being close.
The target of assay [2] is T1, KOR. Briefly: Real-time BRET kinetics of KOR–Nb39. Type of assay: cell-based. The note with it: SalA / Buffer.
The test system of assay [3] is ETA. It counts as cell-based, human. Particulars: ETA-KOR.
Assay [4] concerns ETA. Type of assay: cell-based, human. The note with it: ETA-KOR, Log [Drug].
Assay [5] addresses T1, KOR. Description: Competition binding with 3H-JDTic in the absence or presence of 5 µM Nb6 or Nb39.
In assay [6] the target is T2, MOR (Homo sapiens, UniProt P35372).
T2 construct: expressed in transfected cells; host or cells: HEK 293T (by the general BRET protocol; not repeated for MOR)
Briefly: BRET assay MOR and Nb6. Type of assay: cell-based. The note with it: Log [Drug].

Assay [7] concerns the target T3, human KOR containing C-terminal Renilla luciferase (RLuc8) (human, UniProt P41145).
T3 construct: kappa opioid receptor, human, wild type; also called KOR-Rluc; kappa opioid receptor; source: HEK 293T, co-transfected, in live cells; not shown: RLuc8, C-terminal, kept
Briefly: FRET or BRET; kinetic BRET in HEK 293T cells co-expressing KOR-Rluc and Nb6-mVenus or Nb39-mVenus; 10 µM Sal A, then 10 µM JDTic added at the indicated times; t1/2 from one phase exponential decay. The note with it: partners not purified.

Where “and” joins values, the source holds several entries; their conditions need not be identical. Identical values can stand only once. Like-named read-outs stand apart in the source and are kept apart here.

On to `COC(=O)[C@@H]1C[C@H](OC(C)=O)C(=O)[C@H]2[C@@]1(C)CC[C@H]1C(=O)O[C@H](c3ccoc3)C[C@]21C` [Sal A, Salvinorin A], for which, in assay [1] (10 µM Sal A added), the “t1/2 of decrease in Nb6-KOR BRET” value was 0.833 ± 0.167 min. Also, the “BRET, KOR + Nb6” value in assay [1] (time 5 min) was 1.409 and 1.4035 and 1.421 and 1.389; in assay [1] (time 6 min), 1.298 and 1.281 and 1.268 and 1.228; in assay [1] (time 7 min), 1.173 and 1.165 and 1.166 and 1.137; in assay [1] (time 8 min), 1.122 and 1.113 and 1.12 and 1.093; in assay [1] (time 9 min), 1.088 and 1.0779 and 1.094 and 1.0747; in assay [1] (time 10 min), 1.082 and 1.078 and 1.0874 and 1.065. The “BRET, KOR + Nb6” value in assay [1] (time 11 min) is 1.074 and 1.07 and 1.083 and 1.058; in assay [1] (time 12 min), 1.074 and 1.063 and 1.076 and 1.058; in assay [1] (time 13 min), 1.075 and 1.061 and 1.082 and 1.064; in assay [1] (time 14 min), 1.069 and 1.063 and 1.08 and 1.062; in assay [1] (time 15 min) it was 1.083 and 1.067 and 1.08 and 1.061; in assay [1] (time 16 min), 1.077 and 1.067 and 1.078 and 1.056. The “BRET, KOR + Nb6” value in assay [1] (time 17 min) is 1.076 and 1.07 and 1.085 and 1.064; in assay [1] (time 18 min), 1.081 and 1.07 and 1.082 and 1.068; in assay [1] (time 19 min), 1.086 and 1.077 and 1.091 and 1.066; in assay [1] (time 20 min), 1.081 and 1.073 and 1.083 and 1.0658; in assay [1] (time 21 min) it was 1.087 and 1.079 and 1.095 and 1.076; in assay [1] (time 22 min), 1.074 (2×) and 1.079 and 1.0714. The “BRET, KOR + Nb6” value in assay [1] (time 23 min) is 1.088 and 1.082 and 1.074 and 1.0724; in assay [1] (time 24 min), 1.091 and 1.078 and 1.081 and 1.076; in assay [1] (time 25 min), 1.086 and 1.081 and 1.078 and 1.0719; in assay [1] (time 26 min), 1.084 and 1.082 and 1.088 and 1.07; in assay [1] (time 27 min) it was 1.079 and 1.0834 and 1.085 and 1.083; in assay [1] (time 28 min), 1.084 and 1.076 and 1.086 (2×). The “BRET, KOR + Nb6” value in assay [1] (time 29 min) was 1.0858 and 1.081 (2×) and 1.075. For the same molecule, the “BRET, KOR + Nb39” value in assay [2] (time 5 min) was 0.0262 and 0.02211 and 0.02102 and 0.02289; in assay [2] (time 6 min), 0.3036 and 0.3141 and 0.3188 and 0.3115; in assay [2] (time 7 min), 0.3004 and 0.3137 and 0.3136 and 0.3142; in assay [2] (time 8 min) it was 0.2978 and 0.3081 and 0.3108 and 0.3153; in assay [2] (time 9 min), 0.2922 and 0.311 and 0.3085 and 0.3127; in assay [2] (time 10 min), 0.2996 and 0.3174 and 0.3198. For the same molecule, the “BRET, KOR + Nb39” value in assay [2] (time 11 min) was 0.2967 and 0.3155 and 0.3205; in assay [2] (time 12 min), 0.298 and 0.3156 and 0.3148 and 0.3226; in assay [2] (time 13 min), 0.2971 and 0.3177 and 0.3205 and 0.3168; in assay [2] (time 14 min) it was 0.2971 and 0.3134 and 0.3132 and 0.3235; in assay [2] (time 15 min) it was 0.2986 and 0.3191 and 0.3238 and 0.3265; in assay [2] (time 16 min), 0.2964 and 0.3182 and 0.3184 and 0.324. The “BRET, KOR + Nb39” value in assay [2] (time 17 min) is 0.3018 and 0.3186 and 0.3227 and 0.3317; in assay [2] (time 18 min), 0.3003 and 0.3158 and 0.3185 and 0.326; in assay [2] (time 19 min) it was 0.3043 and 0.3186 and 0.3228 and 0.323; in assay [2] (time 20 min), 0.2961 and 0.3231 and 0.3183 and 0.3325; in assay [2] (time 21 min), 0.3008 and 0.3186 and 0.3235; in assay [2] (time 22 min), 0.3025 and 0.3173 and 0.3147 and 0.3318. Moreover, the “BRET, KOR + Nb39” value in assay [2] (time 23 min) was 0.2987 and 0.3226 and 0.3296; in assay [2] (time 24 min), 0.2996 and 0.3206 and 0.3159 and 0.3334; in assay [2] (time 25 min) it was 0.3041 and 0.3179 and 0.3117 and 0.3236; in assay [2] (time 26 min), 0.2994 and 0.3089 and 0.3198 and 0.3347; in assay [2] (time 27 min), 0.3042 and 0.3155 and 0.3211 and 0.3323; in assay [2] (time 28 min), 0.2989 and 0.303 and 0.3151 and 0.3345. The “BRET, KOR + Nb39” value in assay [2] (time 29 min) is 0.2966 and 0.3193 and 0.305 and 0.3267; in assay [2] (time 30 min), 0.2958 and 0.3183 and 0.3167 and 0.3297.

As for `CC[C@H](C)[C@H](NC(=O)[C@H](CC(=O)O)NC(=O)[C@H](CC(C)C)NC(=O)[C@H](Cc1c[nH]cn1)NC(=O)[C@@H]1CSSC[C@H](N)C(=O)N[C@@H](CO)C(=O)N[C@H]2CSSC[C@H](NC(=O)[C@H](CCC(=O)O)NC(=O)[C@H](CCCCN)NC(=O)[C@H](CC(=O)O)NC(=O)[C@H](CCSC)NC(=O)[C@H](CC(C)C)NC(=O)[C@H](CO)NC(=O)[C@H](CO)NC2=O)C(=O)N[C@@H](C(C)C)C(=O)N[C@@H](Cc2ccc(O)cc2)C(=O)N[C@@H](Cc2ccccc2)C(=O)N1)C(=O)N[C@H](C(=O)N[C@@H](Cc1c[nH]c2ccccc12)C(=O)O)[C@@H](C)CC` [Endothelin-1], the “Net BRET receptor and Nb6, source data Figure 5b” value in assay [3] (Log [Endothelin-1,] M = -5) is 4.499 and 7.7967 and 6.394; in assay [3] (Log [Endothelin-1,] M = -6), 5.268 and 6.925 and 6.885; in assay [3] (Log [Endothelin-1,] M = -7) it was 45.5139 and 37.9048 and 42.0353; in assay [3] (Log [Endothelin-1,] M = -8), 94.8754 and 92.9034 and 94.0384; in assay [3] (Log [Endothelin-1,] M = -9) it was 99.5856 and 100.414 and 100.568; in assay [3] (Log [Endothelin-1,] M = -10) it was 98.7901 and 95.8099 and 98.252. Also, in assay [3] (Log [Endothelin-1,] M = -11), the “Net BRET receptor and Nb6, source data Figure 5b” value was 101.512 and 91.9128 and 97.2504. The “Net BRET G protein activation, source data Figure 5c” value in assay [4] (M = -5.5) is 8.126 and 14.2188 and 11.7402; in assay [4] (M = -6.5), 13.3731 and 8.584 and 11.2246; in assay [4] (M = -7.5), 27.9656 and 34.3494 and 31.9455; in assay [4] (M = -8.5) it was 53.981 and 48.3799 and 51.5065; in assay [4] (M = -9.5), 73.7875 and 86.5149 and 80.3002; in assay [4] (M = -10.5), 94.2005 and 91.2115 and 93.274. Besides, the “Net BRET G protein activation, source data Figure 5c” value was 104.258 and 97.1609 and 101.662 in assay [4] (M = -11.5); 100.567 and 115.131 in assay [4] (M = -12.5).

For the molecule `CC[C@H](C)[C@H](NC(=O)[C@H](CCCNC(=N)N)NC(=O)[C@H](CCCNC(=N)N)NC(=O)[C@H](CC(C)C)NC(=O)[C@H](Cc1ccccc1)NC(=O)CNC(=O)CNC(=O)[C@@H](N)Cc1ccc(O)cc1)C(=O)N[C@@H](CCCNC(=N)N)C(=O)N1CCC[C@H]1C(=O)N[C@@H](CCCCN)C(=O)N[C@@H](CC(C)C)C(=O)N[C@@H](CCCCN)C(=O)O` [Dynorphin A, 1-13, Dynorphin A (1–13)], the Ki in assay [5] was 2.43 ± 0.2 nM.

With `NC(=O)c1ccc(Oc2ccc(CN3CCC[C@H]3c3cccnc3)cc2)c(F)c1` [LY2459989], in assay [5], the “increase of binding affinity in the presence of Nb6” value is given as ~ 6 fold. Besides, the Ki in assay [5] (read-out: Ki ± SEM) is 3.4 ± 0.25 nM.

With `O=C(N[C@@H]1C=CC2[C@H]3Cc4ccc(O)c5c4[C@@]2(CCN3CC2CC2)[C@H]1O5)c1cccc(I)c1` (stereo partly shown) [MP1104], in assay [5], the “effect of Nb6 on binding affinity” value is listed as “only slightly affected”.

Regarding `C[C@@H](NC(=O)[C@@H](N)Cc1ccc(O)cc1)C(=O)NCC(=O)N(C)[C@@H](Cc1ccccc1)C(=O)NCCO` [DAMGO], the “response (Figure S9b)” value in assay [6] (M -6) is 34.0976 and 31.8296 and 33.2096; in assay [6] (M -7) it was 78.9066 and 72.2446 and 76.3636; in assay [6] (M -8), 84.8057 and 83.6246 and 84.5411; in assay [6] (M -9), 92.3096 and 93.4924; in assay [6] (M -10) it was 90.9034 and 89.2915 and 90.6654; in assay [6] (M -11) it was 93.7193 and 94.9714 and 95.2973. Also, the “response (Figure S9b)” value in assay [6] (M -12) is 99.6463 and 100.354.

B1: Nb39-mVenus (VHH)
VHH: QVQLVESGGGLVRPGGSLRLSCVDSERTSYPMGWFRRAPGKEREFVASITWSGIDPTYADSVADRFTTSRDVANNTLYLQMNSLKHEDTAVYYCAARAPVGQSSSPYDYDYWGQGTQVTVSS
notes: nanobody chain of the cited KOR-MP1104-Nb39 structure PDB 6B73; A purified Nb39 from E. coli WK6 (no mVenus) was used at 5 µM in the radioligand assays; the functional row on it uses this id; also called positive allosteric nanobody; active-state associated nanobody; source: HEK 293T, co-transfected, in live cells; not shown: mVenus, C-terminal, kept
Regarding B1, the “t1/2 of the reversal of the KOR-Nb39 association by JDTic” value in assay [7] is 1.78 ± 0.25 min.

(Values after paper PMC7052193, “Nanobody-enabled monitoring of kappa opioid receptor states” (Nature Communications, 2020).)
